Assay results taken from PMC8658889, “Seriniquinones as Therapeutic Leads for Treatment of BRAF and NRAS Mutant Melanomas” (Molecules, 2021).
pIC50: −log10 of the molar value.

Assays:
SK-MEL-28 = test: MTT cytotoxicity assay; format: cell-based, Human; details: for pIC50: Homo sapiens
Description: (§1) Human cell lines were used throughout this program. SK-MEL-19 (melanoma BRAF^V600E, NRAS^WT), SK-MEL-28 (melanoma BRAF^V600E, NRAS^WT), SK-MEL-147 (melanoma BRAF^WT, NRAS^Q61R), MRC-5 (fibroblasts), and primary fibroblast (FDH) were kindly provided by Professor Glaucia Santelli (University of São Paulo, Brazil). MCF7 (breast adenocarcinoma, ATCC HTB-22), and HCT-116 (colorectal carcinoma, ATCC 247) cells were obtained from American Type Culture Collection (ATCC) and deposited in the Cell Bank of Rio de Janeiro, Brazil. WM293A (metastatic melanoma BRAF^V600D, NRAS^WT), 501mel (metastatic melanoma BRAF^V600E; NRAS^G12D), and MM200 (melanoma BRAF^V600E, NRAS^WT) were kindly provided by Professor Sharon Prince, University of Cape Town, South Africa. All human melanoma and breast cell lines were cultivated with Dulbecco’s Modified Eagle Medium: Nutrient Mixture F-12 (Thermo Fisher Scientific, San Jose, CA, USA). MM200 and HCT-116 were maintained with Roswell Park Memorial Institute (RPMI) medium (Thermo Fisher Scientific, San Jose, CA, USA). Unless stated otherwise, media was supplemented with 10% fetal bovine serum (FBS) and 1% penicillin-streptomycin (Thermo Fisher Scientific, San Jose, CA, USA). Cells were incubated with 5% CO2 at 37 °C. When required, cells were detached from flask using trypsin-EDTA 0.05% (Thermo Fisher Scientific, San Jose, CA, USA).
(§2) Cytotoxic activity was evaluated by the transformation of 3-(4,5-dimethylthiazol-2-yl)-2,5-diphenyltetrazolium bromide (MTT; Thermo Fisher Scientific, San Jose, CA, USA) into formazan by viable cells. Cells were plated in a 96-well plate (1 × 10^4 cells/well) and, 24 h later, exposed to serial dilutions of the test compounds (from 0.00032 to 5.0 µM) for 24, 48, and 72 h. For each analysis, negative controls received 0.5% DMSO and positive control was delivered by doxorubicin (DOX; 0.05 to 10.0 µM). At the end of the incubation periods, the medium was replaced with fresh medium containing 0.5 mg/mL of MTT and supernatant was removed 3 h later. The plates were dried at 50 °C for 30 min and formazan was solubilized in DMSO (150 µL/well) for the absorbance measure at 570 nm on a plate reader (Thermo Fisher Scientific, San Jose, CA, USA). IC50 values (half-maximal inhibitory concentration) along with 95% CI (confidence intervals) were calculated by non-linear regression using GraphPad Prism 8.0 software (GraphPad Software, Inc., San Diego, CA, USA).

HCT-116 = test: MTT cytotoxicity assay; format: cell-based, Human; details: for pIC50: Homo sapiens, HCT-116, 72 h treatment, MTT
Description: as §1, §2

WM293A = test: MTT cytotoxicity assay; format: cell-based, Human; details: for pIC50: Homo sapiens, WM293A, 72 h treatment, MTT
Description: as §1, §2

FDH = test: MTT cytotoxicity assay; format: cell-based, Human; details: Homo sapiens, Fibroblast, 72 h, FDH primary fibroblasts, 72 h treatment
Description: as §1, §2

501mel = test: MTT cytotoxicity assay; format: cell-based, Human; details: for pIC50: Homo sapiens, 501mel, 72 h treatment, MTT
Description: as §1, §2

SK-MEL-19 = test: MTT cytotoxicity assay; format: cell-based, Human; details: for pIC50: Homo sapiens, SK-MEL19, SK-MEL-19, 72 h treatment, MTT
Description: as §1, §2

MCF7 = test: MTT cytotoxicity assay; format: cell-based, Human; details: for pIC50: Homo sapiens, MCF7, 72 h treatment, MTT
Description: as §1, §2

SK-MEL-147 = test: MTT cytotoxicity assay; format: cell-based, Human; details: for pIC50: Homo sapiens
Description: as §1, §2

MM200 = test: MTT cytotoxicity assay; format: cell-based, Human; details: for pIC50: Homo sapiens, MM200, 72 h treatment, MTT
Description: as §1, §2

MRC-5 = test: MTT cytotoxicity assay; details: Homo sapiens, MRC5, 72 h
melanoma cells = test: MTT cytotoxicity assay, melanoma panel; format: cell-based, Human; details: SK-Mel cells versus non-tumor cell lines
Description: as §1, §2

[1] = SK-MEL-28, 72 h, SK-MEL-28, 72 h treatment, MTT
[2] = SK-MEL-28, SK-MEL-28, 24h treatment, 1h pre-treated with 30 nM bafilomycin A1
[3] = SK-MEL-28, SK-MEL-28, 24h treatment, 1h pre-treated with 20 µM Z-VAD-FMK
[4] = SK-MEL-28, SK-MEL-28, 24h treatment, no pre-treatment (Table S4)
[5] = SK-MEL-28 versus FDH, 72-h IC50 ratio
[6] = SK-MEL-28 versus MRC-5, 72-h IC50 ratio
[7] = HCT-116 versus FDH, 72-h IC50 ratio
[8] = HCT-116 versus MRC-5, 72-h IC50 ratio
[9] = WM293A versus FDH, 72-h IC50 ratio
[10] = WM293A versus MRC-5, 72-h IC50 ratio
[11] = 501mel versus FDH, 72-h IC50 ratio
[12] = 501mel versus MRC-5, 72-h IC50 ratio
[13] = SK-MEL-19 versus FDH, 72-h IC50 ratio
[14] = SK-MEL-19 versus MRC-5, 72-h IC50 ratio
[15] = MCF7 versus FDH, 72-h IC50 ratio
[16] = MCF7 versus MRC-5, 72-h IC50 ratio
[17] = SK-MEL-147, 72 h, SK-MEL-147, 72 h treatment, MTT
[18] = SK-MEL-147, SK-MEL-147, 24h treatment, 1h pre-treated with 30 nM bafilomycin A1
[19] = SK-MEL-147, SK-MEL-147, 24h treatment, 1h pre-treated with 20 µM Z-VAD-FMK
[20] = SK-MEL-147, SK-MEL-147, 24h treatment, no pre-treatment (Table S4)
[21] = SK-MEL-147 versus FDH, 72-h IC50 ratio
[22] = SK-MEL-147 versus MRC-5, 72-h IC50 ratio
[23] = MM200 versus FDH, 72-h IC50 ratio
[24] = MM200 versus MRC-5, 72-h IC50 ratio
[25] = MRC-5 non-tumor fibroblasts, 72 h treatment, MTT

SMILES	pIC50 (SK-MEL-28; [1])	Selectivity Index (SI) (SK-MEL-28; [5])	Selectivity Index (SI) (SK-MEL-28; [6])	Selectivity Index (SI) (HCT-116; [7])	Selectivity Index (SI) (HCT-116; [8])	pIC50 (HCT-116)	pIC50 (WM293A)	Selectivity Index (SI) (WM293A; [9])	Selectivity Index (SI) (WM293A; [10])	pIC50 (FDH)	pIC50 (501mel)	pIC50 (SK-MEL-19)	Selectivity Index (SI) (SK-MEL-19; [13])	Selectivity Index (SI) (SK-MEL-19; [14])	pIC50 (MCF7)	Selectivity Index (SI) (MCF7; [15])	Selectivity Index (SI) (MCF7; [16])	pIC50 (SK-MEL-147; [17])	Selectivity Index (SI) (SK-MEL-147; [21])	Selectivity Index (SI) (SK-MEL-147; [22])	other results
COc1cccc2c1C(=O)c1c(O)c3c(c(O)c1C2=O)C[C@@](O)(C(=O)CO)C[C@@H]3O[C@H]1C[C@H](N)[C@H](O)[C@H](C)O1 [DOX, doxorubicin, reference compound]	5.91	0.6	0.04	5.2	0.3	6.82	7.22	13.0	0.9	6.11	6.59	6.41	2.0	0.1	6.25	1.4	0.1	6.74	4.3	0.3	pIC50 (SK-MEL-28; SK-MEL-28, 24 h, SK-MEL-28, 24h treatment, MTT): 5.86; pIC50 (SK-MEL-28; SK-MEL-28, 48 h, SK-MEL-28, 48h treatment, MTT): 5.68; pIC50 (SK-MEL-28; [2]): 6.48; pIC50 (SK-MEL-28; [3]): 5.94; pIC50 (SK-MEL-28; [4]): 6.23; Selectivity Index (SI) (501mel; [11]): 3.0; Selectivity Index (SI) (501mel; [12]): 0.2; pIC50 (SK-MEL-147; SK-MEL-147, 24 h, SK-MEL-147, 24h treatment, MTT): 6.10; pIC50 (SK-MEL-147; SK-MEL-147, 48 h, SK-MEL-147, 48h treatment, MTT): 6.32; pIC50 (SK-MEL-147; [18]): 5.61; pIC50 (SK-MEL-147; [19]): 5.73; pIC50 (SK-MEL-147; [20]): 6.10; pIC50 (MM200): 7.00; Selectivity Index (SI) (MM200; [23]): 7.8; Selectivity Index (SI) (MM200; [24]): 0.5; pIC50 (MRC-5): 7.30
CO[C@H]1C[C@@H]2CC[C@@H](C)[C@@](O)(O2)C(=O)C(=O)N2CCCC[C@H]2C(=O)O[C@H]([C@H](C)C[C@@H]2CC[C@@H](O)[C@H](OC)C2)CC(=O)[C@H](C)/C=C(\C)[C@@H](O)[C@@H](OC)C(=O)[C@H](C)C[C@H](C)/C=C/C=C/C=C/1C [RAPAMYCIN, rapamycin, reference compound]	–	–	–	–	–	–	–	–	–	–	–	–	–	–	–	–	–	–	–	–	pIC50 (SK-MEL-28; [2]): 4.81; pIC50 (SK-MEL-28; [3]): 4.50; pIC50 (SK-MEL-28; [4]): 4.75; pIC50 (SK-MEL-147; [18]): 4.41; pIC50 (SK-MEL-147; [19]): 4.64; pIC50 (SK-MEL-147; [20]): 4.76
O=C(O)CCc1ccc2c(=O)c3sc4c(=O)c5ccccc5c(=O)c4c3c(=O)c2c1 [SQ3]	6.62	14.6	6.0	3.4	1.4	5.99	5.82	2.3	1.0	5.46	6.70	6.96	31.8	13.0	5.72	1.8	0.8	6.59	13.5	5.5	Selectivity Index (SI) (501mel; [11]): 17.5; Selectivity Index (SI) (501mel; [12]): 7.2; pIC50 (MM200; 72 h): 5.84; Selectivity Index (SI) (MM200; [23]): 2.4; Selectivity Index (SI) (MM200; [24]): 1.0; pIC50 (MRC-5; [25]): 5.84; selectivity indices to SK-Mel cells in relation to non-tumor cell lines (melanoma cells): ≥ twofold
NCCCCCCNC(=O)CCc1ccc2c(=O)c3sc4c(=O)c5ccccc5c(=O)c4c3c(=O)c2c1 [SQ4]	6.72	5.3	12.9	1.0	2.4	5.99	5.76	0.6	1.4	6.00	< 5.30	6.49	3.2	7.7	6.00	1.0	2.5	6.40	2.5	6.1	pIC50 (MM200; 72 h): 5.94; Selectivity Index (SI) (MM200; [23]): 0.9; Selectivity Index (SI) (MM200; [24]): 2.1; pIC50 (MRC-5; [25]): 5.61; selectivity indices to SK-Mel cells in relation to non-tumor cell lines (melanoma cells): ≥ twofold
N[C@H]1CCN(C(=O)CCc2ccc3c(=O)c4sc5c(=O)c6ccccc6c(=O)c5c4c(=O)c3c2)C1 [SQ5]	6.82	6.2	3.7	4.2	2.5	6.66	5.78	0.6	0.3	6.03	5.77	7.40	23.3	14.0	6.31	1.9	1.1	7.15	13.3	8.0	Selectivity Index (SI) (501mel; [11]): 0.5; Selectivity Index (SI) (501mel; [12]): 0.3; pIC50 (MM200; 72 h): 6.52; Selectivity Index (SI) (MM200; [23]): 3.1; Selectivity Index (SI) (MM200; [24]): 1.9; pIC50 (MRC-5; [25]): 6.25; selectivity indices to SK-Mel cells in relation to non-tumor cell lines (melanoma cells): ≥ twofold
